In patent publication US20220325122A1, “Ink Set And Recording Method” (Seiko Epson Corporation, priority 2021, published 2022):

Conditions: water at 20° C.; stated in words

COCCOC [ethylene glycol dimethyl ether]
miscibility with water: completely miscible with water
